In ChEMBL document CHEMBL1201862, “PubChem BioAssay data set” (2004):
The source made the active and inactive calls. Unless noted, the rule behind the calls is not given here.

How the values were obtained:
Type in all cases: functional
[1] = target: T1, Sentrin-specific protease 6 (Homo sapiens, UniProt Q9GZR1); assay: SENP6 protease inhibitors, SAR follow-up, biochemical, luminescence, set 2 (AID 588598)
T1 sequence (Q9GZR1 whole entry): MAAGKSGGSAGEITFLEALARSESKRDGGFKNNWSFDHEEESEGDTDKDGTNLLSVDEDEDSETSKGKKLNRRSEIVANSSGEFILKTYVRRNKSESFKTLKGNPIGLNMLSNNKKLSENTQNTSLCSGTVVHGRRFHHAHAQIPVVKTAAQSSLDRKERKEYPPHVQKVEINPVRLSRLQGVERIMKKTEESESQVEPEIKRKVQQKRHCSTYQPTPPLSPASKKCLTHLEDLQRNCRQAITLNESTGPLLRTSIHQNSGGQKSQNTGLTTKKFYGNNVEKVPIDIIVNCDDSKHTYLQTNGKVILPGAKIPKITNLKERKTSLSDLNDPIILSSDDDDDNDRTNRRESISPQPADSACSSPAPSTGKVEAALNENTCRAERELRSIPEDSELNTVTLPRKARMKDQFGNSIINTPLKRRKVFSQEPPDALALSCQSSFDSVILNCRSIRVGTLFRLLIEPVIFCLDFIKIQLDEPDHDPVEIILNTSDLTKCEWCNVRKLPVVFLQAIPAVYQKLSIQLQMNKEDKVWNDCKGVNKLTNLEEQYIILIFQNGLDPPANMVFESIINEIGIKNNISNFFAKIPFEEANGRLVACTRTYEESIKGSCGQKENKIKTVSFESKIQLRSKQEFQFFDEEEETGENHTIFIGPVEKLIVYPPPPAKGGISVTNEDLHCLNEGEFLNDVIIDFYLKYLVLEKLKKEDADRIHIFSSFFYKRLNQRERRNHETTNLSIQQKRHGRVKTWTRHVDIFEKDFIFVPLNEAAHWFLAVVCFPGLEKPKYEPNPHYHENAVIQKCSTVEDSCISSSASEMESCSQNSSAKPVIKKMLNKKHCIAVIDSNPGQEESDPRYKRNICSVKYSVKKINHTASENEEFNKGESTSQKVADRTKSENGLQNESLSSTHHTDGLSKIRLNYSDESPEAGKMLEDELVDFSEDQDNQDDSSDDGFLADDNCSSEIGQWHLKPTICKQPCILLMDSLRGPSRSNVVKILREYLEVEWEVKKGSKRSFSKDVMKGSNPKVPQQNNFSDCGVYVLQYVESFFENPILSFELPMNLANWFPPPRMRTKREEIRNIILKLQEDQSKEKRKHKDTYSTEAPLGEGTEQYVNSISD

[2] = target: T2, Sentrin-specific protease 8 (Homo sapiens, UniProt Q96LD8); assay: SENP8 protease inhibitors, SAR follow-up, biochemical, luminescence, set 2 (AID 588601)
T2 sequence (Q96LD8 whole entry): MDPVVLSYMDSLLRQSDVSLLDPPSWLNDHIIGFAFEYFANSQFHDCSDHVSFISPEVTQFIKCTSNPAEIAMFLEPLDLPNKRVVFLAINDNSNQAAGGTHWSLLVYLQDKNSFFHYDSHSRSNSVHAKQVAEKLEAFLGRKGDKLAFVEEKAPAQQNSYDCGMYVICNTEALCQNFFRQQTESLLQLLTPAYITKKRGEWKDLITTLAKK

Caspase-3 = target: T3, Caspase-3 (Homo sapiens, UniProt P42574); assay: caspase-3 inhibitors as off-family protease, SAR follow-up, selectivity assay for SENP protease inhibitor project, biochemical, luminescence, set 2 (AID 588599)
T3 sequence (P42574 whole entry): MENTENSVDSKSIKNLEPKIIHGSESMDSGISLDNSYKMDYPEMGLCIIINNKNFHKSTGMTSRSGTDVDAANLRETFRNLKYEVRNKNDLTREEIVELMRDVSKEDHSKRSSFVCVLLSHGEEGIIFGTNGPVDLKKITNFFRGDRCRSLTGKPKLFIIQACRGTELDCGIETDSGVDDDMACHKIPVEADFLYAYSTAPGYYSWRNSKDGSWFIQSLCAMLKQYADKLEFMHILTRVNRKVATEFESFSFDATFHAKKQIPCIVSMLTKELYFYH

[3] = target: T4, Sentrin-specific protease 7 (Homo sapiens, UniProt Q9BQF6); assay: SENP7 protease inhibitors, SAR follow-up, biochemical, luminescence, set 2 (AID 588600)
T4 sequence (Q9BQF6 whole entry): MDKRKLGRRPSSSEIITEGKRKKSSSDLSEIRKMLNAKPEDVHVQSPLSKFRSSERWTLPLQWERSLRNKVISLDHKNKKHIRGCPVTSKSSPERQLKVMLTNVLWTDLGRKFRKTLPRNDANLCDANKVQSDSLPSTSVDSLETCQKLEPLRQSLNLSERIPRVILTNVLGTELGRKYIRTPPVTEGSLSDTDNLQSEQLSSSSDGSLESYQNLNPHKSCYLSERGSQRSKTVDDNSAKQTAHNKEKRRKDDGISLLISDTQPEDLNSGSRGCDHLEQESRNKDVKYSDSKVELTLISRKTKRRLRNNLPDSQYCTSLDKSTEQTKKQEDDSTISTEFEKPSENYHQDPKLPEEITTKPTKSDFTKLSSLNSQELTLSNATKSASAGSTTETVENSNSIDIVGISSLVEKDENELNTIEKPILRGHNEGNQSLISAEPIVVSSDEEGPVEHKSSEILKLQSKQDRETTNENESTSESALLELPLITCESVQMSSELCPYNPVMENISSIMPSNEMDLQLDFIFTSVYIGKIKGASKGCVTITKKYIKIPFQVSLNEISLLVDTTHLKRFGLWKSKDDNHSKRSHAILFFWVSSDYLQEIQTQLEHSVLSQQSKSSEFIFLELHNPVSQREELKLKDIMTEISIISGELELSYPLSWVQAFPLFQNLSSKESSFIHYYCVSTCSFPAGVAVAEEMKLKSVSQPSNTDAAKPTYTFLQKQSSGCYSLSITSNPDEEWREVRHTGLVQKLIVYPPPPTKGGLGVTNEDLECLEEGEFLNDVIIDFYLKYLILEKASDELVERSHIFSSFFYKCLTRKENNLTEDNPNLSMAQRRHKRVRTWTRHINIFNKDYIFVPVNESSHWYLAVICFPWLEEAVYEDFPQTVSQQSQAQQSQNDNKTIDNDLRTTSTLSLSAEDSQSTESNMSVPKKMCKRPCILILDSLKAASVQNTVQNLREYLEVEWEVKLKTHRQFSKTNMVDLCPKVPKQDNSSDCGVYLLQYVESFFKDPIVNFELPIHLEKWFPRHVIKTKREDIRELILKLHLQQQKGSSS

Phospholipase D2 = Phospholipase D2 (Homo sapiens, UniProt O14939); assay: PLD2 purified enzyme concentration response. [Related pubchem assays (depositor defined):AID588854]
Phospholipase D1 = Phospholipase D1 (Homo sapiens, UniProt Q13393); assay: PLD1 purified enzyme concentration response. [Related pubchem assays (depositor defined):AID588854]
[4] = HepG2 cell cytotoxicity, cytotoxicity control, set 6 (AID 602432); conditions: Mycobacterium tuberculosis
[5] = Vero cell cytotoxicity, cytotoxicity control for M. tuberculosis inhibitor project, purified and synthesized samples, set 8 (AID 602431); conditions: Mycobacterium tuberculosis
[6] = THP-1 cell cytotoxicity, cytotoxicity control, set 6 (AID 602433); conditions: Mycobacterium tuberculosis

Phospholipase D2, sequence (O14939 whole entry): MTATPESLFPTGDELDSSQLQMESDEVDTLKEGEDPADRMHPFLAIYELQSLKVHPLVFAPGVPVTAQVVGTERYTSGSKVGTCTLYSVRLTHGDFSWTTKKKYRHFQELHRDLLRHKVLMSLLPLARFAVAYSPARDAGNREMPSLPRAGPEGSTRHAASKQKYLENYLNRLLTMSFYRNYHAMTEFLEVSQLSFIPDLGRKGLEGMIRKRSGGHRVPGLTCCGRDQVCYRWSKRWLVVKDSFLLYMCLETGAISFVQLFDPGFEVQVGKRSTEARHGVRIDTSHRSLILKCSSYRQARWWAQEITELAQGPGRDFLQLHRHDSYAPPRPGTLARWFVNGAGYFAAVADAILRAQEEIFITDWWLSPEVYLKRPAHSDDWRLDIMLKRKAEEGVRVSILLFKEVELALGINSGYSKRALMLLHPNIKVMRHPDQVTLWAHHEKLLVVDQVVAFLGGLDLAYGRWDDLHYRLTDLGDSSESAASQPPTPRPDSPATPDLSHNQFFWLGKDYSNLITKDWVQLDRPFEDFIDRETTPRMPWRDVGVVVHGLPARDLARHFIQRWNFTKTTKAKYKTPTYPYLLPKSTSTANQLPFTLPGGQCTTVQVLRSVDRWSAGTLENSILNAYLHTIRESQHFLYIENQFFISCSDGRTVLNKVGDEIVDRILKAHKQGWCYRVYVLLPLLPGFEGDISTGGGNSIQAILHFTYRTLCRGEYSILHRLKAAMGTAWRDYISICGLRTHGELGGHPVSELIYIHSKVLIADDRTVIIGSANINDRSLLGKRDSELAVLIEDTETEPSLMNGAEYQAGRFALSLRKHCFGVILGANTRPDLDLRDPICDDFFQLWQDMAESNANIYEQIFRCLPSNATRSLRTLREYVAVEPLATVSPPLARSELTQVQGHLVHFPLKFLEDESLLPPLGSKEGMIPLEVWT
Phospholipase D1, sequence (Q13393 whole entry): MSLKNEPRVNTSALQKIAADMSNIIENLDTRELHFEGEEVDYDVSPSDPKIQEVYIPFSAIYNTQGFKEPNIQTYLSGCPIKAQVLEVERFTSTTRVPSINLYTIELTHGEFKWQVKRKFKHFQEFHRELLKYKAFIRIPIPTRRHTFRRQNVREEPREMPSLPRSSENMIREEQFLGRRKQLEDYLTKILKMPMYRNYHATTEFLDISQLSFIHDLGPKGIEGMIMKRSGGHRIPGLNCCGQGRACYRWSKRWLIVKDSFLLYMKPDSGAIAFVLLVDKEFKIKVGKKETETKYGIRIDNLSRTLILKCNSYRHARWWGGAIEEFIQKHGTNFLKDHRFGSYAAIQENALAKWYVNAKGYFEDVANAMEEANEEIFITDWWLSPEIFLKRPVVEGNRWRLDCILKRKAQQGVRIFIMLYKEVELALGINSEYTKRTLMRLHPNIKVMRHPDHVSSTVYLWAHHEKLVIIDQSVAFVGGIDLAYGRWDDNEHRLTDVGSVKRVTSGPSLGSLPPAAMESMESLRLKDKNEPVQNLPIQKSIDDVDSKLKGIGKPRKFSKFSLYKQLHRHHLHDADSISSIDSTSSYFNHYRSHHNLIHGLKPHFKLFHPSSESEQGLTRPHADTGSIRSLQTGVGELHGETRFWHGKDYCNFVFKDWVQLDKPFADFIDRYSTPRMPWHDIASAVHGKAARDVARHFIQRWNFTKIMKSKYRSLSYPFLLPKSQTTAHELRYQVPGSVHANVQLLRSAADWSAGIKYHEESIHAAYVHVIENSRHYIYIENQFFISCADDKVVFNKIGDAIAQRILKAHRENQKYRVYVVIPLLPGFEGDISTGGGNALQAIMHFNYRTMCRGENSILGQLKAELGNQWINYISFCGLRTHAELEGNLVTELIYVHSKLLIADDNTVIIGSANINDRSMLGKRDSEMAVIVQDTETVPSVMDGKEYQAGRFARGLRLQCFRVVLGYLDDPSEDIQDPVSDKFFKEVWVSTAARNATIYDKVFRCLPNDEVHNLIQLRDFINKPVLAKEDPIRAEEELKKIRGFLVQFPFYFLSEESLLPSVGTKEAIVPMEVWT

For `Cc1[nH]c2ccccc2c1C(=O)C(=O)N1CCCCCC1`, the IC50 [1] was > 99 µM (inactive), the IC50 [2] was > 99 µM (inactive) and the IC50 (Caspase-3) was > 99 µM (inactive). For the same molecule, the IC50 [3] was > 99 µM (inactive).
For `O=C(NCCN1CCC2(CC1)C(=O)NCN2c1ccc(F)c(F)c1)c1ccc2ccccc2c1`, the IC50 (Phospholipase D2) was 0.098 µM (active) and the IC50 (Phospholipase D1) was 20 µM (active).
For `O=C(NCc1ccc(C(=O)N2CCC(c3ccccc3)CC2)cc1)NC1CCCCC1`, the CC50 [4] was > 50 µM (inconclusive), the CC50 [5] was 82.5 µM (active) and the CC50 [6] was 65.8 µM (active).
